Source: US4689326A, “Process for controlling hyperlipidemia” (Research Corporation, priority 1985, dated 1987)

Tests used:
[1] = test system: Phosphatidate Phosphohyrolase; assay: In vitro enzyme activity, liver homogenate: phosphatidate phosphohydrolase; assay type: biochemical, CF1 male mouse; details: ± SD, N = 6
Procedure: (§1) In vitro enzymatic studies were undertaken using 10% homogenates of CF1 male mouse liver with […] of compound 3,4,5,6-dibenzohomopiperidine. In addition, in vivo enzymatic studies were performed, again using 10% liver homogenates (prepared in 0.25 M sucrose plus 0.001 M (ethylenedinitrilo)-tetraacetic acid, ph 7.25 from CF1 male mice obtained after administering 3,4,5,6-dibenzohomopiperidine for 16 days at a concentration ranging from 10 to 60 mg/kg/day, intraperitoneally.
(§2) The following enzyme activities were determined by following standard literature procedures: acetyl coenzyme synthetase; adenosine triphosphate dependent citrate lyase; mitochondrial citrate exchange; cholesterol/7 hydroxylase; 3-hydroxy-3-methyl-glutaryl coenzyme A reductase; acetyl coenzyme A carboxylase activity; fatty acid synthetase activity; sn-glycerol-3-phosphate acyl transferase activity; phosphatidate phosphohydrolase activity; cholesterol acyl transferase; and heparin activated hepatic lypoprotein lipase. Protein was determined for all enzyme assays by the Lowry et al. technique (J. Biol. Chem, 193, 265 (1951)).

HDL = assay: Lipoprotein fractions in Rats, Example 11: HDL; assay type: in vivo, Sprague Dawley male rats; details: oral 20 mg/kg/day, fourteen days, ± SD
Procedure: (§3) A group of six Sprague Dawley male rats were treated with 20 mg/kg/day of 3,4,5,6-dibenzohomopiperidine. The treatment was applied orally. An equal number of Sprague Dawley male rats, having approximately the same weight, were utilized as an untreated control. At the end of fourteen days the control and treated rats were sacrificed. Blood was collected from the abdominal aorta and lipoprotein fractions were obtained by the method of Hatch and Lees [Adv. Lipid Rees., 6, 1 (1968)] and Havel et al. [J. Clin Invest., 34, 1345 (1955)]. Each of the fractions were analyzed for cholesterol, triglycerides, neutral lipids, phospholipids and protein levels.

^3 H-cholesterol = assay: Effect on 3H Cholesterol Distribution in Rats, Example 12; assay type: in vivo, Sprague Dawley rats; details: oral 20 mg/kg/day
Procedure: A group of 6 Sprague Dawley rats, each weighing approximately 300 g, were treated with 3,4,5,6-dibenzohomopiperdine applied orally at a dosage of 20 mg/kg per day for 4 days. Six similar Sprague Dawley rats were untreated and served as a control. On the 13th day, 10 μCi of ^3 H-cholesterol was administered orally. The rats were sacrificed and tissue samples were combusted or plated on filter paper, dried and digested for 24 hours in hyamine hydroxide at 40° C. and counted. Results of this test are reported as disintegrations per minute (DPM) per total organ.
In Table 10, the average organ weight and feces of the treated and untreated rats are reported. The table indicates the concentration of ^3 H-cholesterol in the organs and feces of the treated and untreated (control) rats.

[2] = test system: liver, small intestine and fecal materials; assay: Lipid Extraction Studies in Mice, Example 10; assay type: in vivo, CF1 male mice; details: ± SD
Procedure: The CF1 male mice that had been administered compound 3,4,5,6-dibenzohomopiperidine at four dosage levels as well as the control mice, were sacrificed and the liver, small intestine and fecal materials (24 hour collection) were removed, extracted and analyzed for cholesterol level, triglycerides level, neutral lipid content and phospholipid content. Table 8 reports the decrease in measured levels of these concentrations as a percentage of the level in the control. The control, it is noted, is always 100%.

[3] = test system: sn-Glycerol-3-Phosphate Acyl Transferase; assay: In vivo enzyme activity, liver of treated mice: sn-glycerol-3-phosphate acyl transferase; set-up: species or system CF1 male mice; details: 16 days, ± SD
Procedure: as §1, §2

[4] = test system: ATP Dependent Citrate Lyase; assay: In vivo enzyme activity, liver of treated mice: ATP dependent citrate lyase; set-up: species or system CF1 male mice; details: 16 days, ± SD
Procedure: as §1, §2

Acetyl CoA Synthetase = target: T1, Acetyl CoA Synthetase (Mus musculus, UniProt Q9QXG4); assay: In vitro enzyme activity, liver homogenate: acetyl CoA synthetase; assay type: biochemical, CF1 male mouse; details: ± SD, N = 6, read-out: Percent Control, in vitro enzyme activity
T1 construct: 10% homogenates of CF1 male mouse liver; from tissue; host or cells: CF1 male mouse liver, 10% homogenate
Procedure: as §1, §2

Fatty Acid Synthetase = assay: In vivo enzyme activity, liver of treated mice: fatty acid synthetase; set-up: species or system CF1 male mice; details: 16 days, ± SD
Procedure: as §1, §2

LDL = assay: Lipoprotein fractions in Rats, Example 11: LDL; assay type: in vivo, Sprague Dawley male rats; details: oral 20 mg/kg/day, fourteen days, ± SD
Procedure: as §3

VLDL = assay: Lipoprotein fractions in Rats, Example 11: VLDL; assay type: in vivo, Sprague Dawley male rats; details: oral 20 mg/kg/day, fourteen days, ± SD
Procedure: as §3

T1 sequence (Q9QXG4 whole entry): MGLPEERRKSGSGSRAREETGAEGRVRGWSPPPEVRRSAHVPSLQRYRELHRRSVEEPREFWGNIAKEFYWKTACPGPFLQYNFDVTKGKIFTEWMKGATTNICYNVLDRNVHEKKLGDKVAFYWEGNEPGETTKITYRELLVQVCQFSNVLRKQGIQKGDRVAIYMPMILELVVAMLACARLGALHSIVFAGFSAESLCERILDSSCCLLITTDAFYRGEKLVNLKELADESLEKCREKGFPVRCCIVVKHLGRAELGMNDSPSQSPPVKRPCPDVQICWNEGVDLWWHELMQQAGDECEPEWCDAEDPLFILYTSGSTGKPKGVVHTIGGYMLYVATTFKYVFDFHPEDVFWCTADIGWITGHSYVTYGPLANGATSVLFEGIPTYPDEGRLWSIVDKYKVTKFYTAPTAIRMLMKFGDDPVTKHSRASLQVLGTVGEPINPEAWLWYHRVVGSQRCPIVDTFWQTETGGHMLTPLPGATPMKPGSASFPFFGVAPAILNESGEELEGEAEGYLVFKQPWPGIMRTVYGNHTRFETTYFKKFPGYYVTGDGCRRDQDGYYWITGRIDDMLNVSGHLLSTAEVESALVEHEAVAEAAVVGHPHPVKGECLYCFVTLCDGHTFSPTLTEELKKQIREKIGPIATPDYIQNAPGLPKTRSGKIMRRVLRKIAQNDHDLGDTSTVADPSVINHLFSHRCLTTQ

## c1ccc2c(c1)CNCc1ccccc1-2 [Compound 3, 3,4,5,6-dibenzohomopiperidine]
[1]; 50 μM
  Percent Control, in vitro enzyme activity: 45 ± 4%
[1]; 100 μM
  Percent Control, in vitro enzyme activity: 44 ± 8%
[1]; 200 μM
  Percent Control, in vitro enzyme activity: 50 ± 6%
HDL
  Cholesterol, concentration as a function of control: 106 ± 5%
  Neutral Lipids, concentration as a function of control: 59 ± 5%
  Phospholipids, concentration as a function of control: 64 ± 3%
  Protein, concentration as a function of control: 106 ± 7%
  Triglycerides, concentration as a function of control: 40 ± 2%
^3 H-cholesterol; brain
  3H-cholesterol, Treated % Recovery: 0.162%
  3H-cholesterol, Treated DPM per total organ: 9,216 DPM
^3 H-cholesterol; chyme
  3H-cholesterol, Treated % Recovery: 11.739%
  3H-cholesterol, Treated DPM: 667,840 DPM
^3 H-cholesterol; feces
  3H-cholesterol, Treated % Recovery: 14.462%
  3H-cholesterol, Treated DPM: 822,719 DPM
^3 H-cholesterol; heart
  3H-cholesterol, Treated % Recovery: 0.452%
  3H-cholesterol, Treated DPM per total organ: 25,692 DPM
^3 H-cholesterol; kidney
  3H-cholesterol, Treated % Recovery: 0.652%
  3H-cholesterol, Treated DPM per total organ: 37,096 DPM
^3 H-cholesterol; large intestine
  3H-cholesterol, Treated % Recovery: 3.757%
  3H-cholesterol, Treated DPM per total organ: 213,777 DPM
^3 H-cholesterol; liver
  3H-cholesterol, Treated % Recovery: 23.615%
  3H-cholesterol, Treated DPM per total organ: 1,343,450 DPM
^3 H-cholesterol; lung
  3H-cholesterol, Treated % Recovery: 2.183%
  3H-cholesterol, Treated DPM per total organ: 124,180 DPM
^3 H-cholesterol; plasma
  3H-cholesterol, Treated DPM: 26,018 DPM
^3 H-cholesterol; small intestine
  3H-cholesterol, Treated % Recovery: 38.525%
  3H-cholesterol, Treated DPM per total organ: 2,191,623 DPM
^3 H-cholesterol; spleen
  3H-cholesterol, Treated % Recovery: 1.806%
  3H-cholesterol, Treated DPM per total organ: 102,723 DPM
^3 H-cholesterol; stomach
  3H-cholesterol, Treated % Recovery: 2.189%
  3H-cholesterol, Treated DPM per total organ: 124,552 DPM
[2]; 20 mg/kg
  Cholesterol, concentration as a function of control: 55 ± 5%
  Lipid wt, concentration as a function of control: 62 ± 6%
  Neutral lipid, concentration as a function of control: 50 ± 5%
  Phospholipid, concentration as a function of control: 100 ± 7%
  Protein, concentration as a function of control: 95 ± 8%
  Triglyceride, concentration as a function of control: 37 ± 4%
[2]; 40 mg/kg
  Cholesterol, concentration as a function of control: 114 ± 8%
  Lipid wt, concentration as a function of control: 112 ± 9%
  Neutral lipid, concentration as a function of control: 95 ± 6%
  Phospholipid, concentration as a function of control: 84 ± 7%
  Protein, concentration as a function of control: 103 ± 7%
  Triglyceride, concentration as a function of control: 70 ± 5%
[2]; 60 mg/kg
  Cholesterol, concentration as a function of control: 99 ± 5%
  Lipid wt, concentration as a function of control: 106 ± 8%
  Neutral lipid, concentration as a function of control: 90 ± 6%
  Phospholipid, concentration as a function of control: 91 ± 8%
  Protein, concentration as a function of control: 104 ± 8%
  Triglyceride, concentration as a function of control: 74 ± 6%
[2]; 10 g/kg (so in the source)
  Cholesterol, concentration as a function of control: 83 ± 6%
  Lipid wt, concentration as a function of control: 92 ± 7%
  Neutral lipid, concentration as a function of control: 75 ± 6%
  Phospholipid, concentration as a function of control: 78 ± 6%
  Protein, concentration as a function of control: 98 ± 9%
  Triglyceride, concentration as a function of control: 48 ± 4%
[3]; 10 mg/kg/day ip
  Percent Control, in vivo enzyme activity: 45 ± 7%
[3]; 20 mg/kg/day ip
  Percent Control, in vivo enzyme activity: 68 ± 8%
[3]; 40 mg/kg/day ip
  Percent Control, in vivo enzyme activity: 62 ± 6%
[3]; 60 mg/kg/day ip
  Percent Control, in vivo enzyme activity: 81 ± 6%
[4]; 10 mg/kg/day ip
  Percent Control, in vivo enzyme activity: 73 ± 6%
[4]; 20 mg/kg/day ip
  Percent Control, in vivo enzyme activity: 63 ± 4%
[4]; 40 mg/kg/day ip
  Percent Control, in vivo enzyme activity: 62 ± 3%
[4]; 60 mg/kg/day ip
  Percent Control, in vivo enzyme activity: 65 ± 5%
Acetyl CoA Synthetase; 50 μM
  remaining activity at 50 µM: 112 ± 6%
Acetyl CoA Synthetase; 100 μM
  remaining activity at 100 µM: 100 ± 7%
Acetyl CoA Synthetase; 200 μM
  remaining activity at 200 µM: 101 ± 6%
Fatty Acid Synthetase; 10 mg/kg/day ip
  Percent Control, in vivo enzyme activity: 100 ± 8%
Fatty Acid Synthetase; 20 mg/kg/day ip
  Percent Control, in vivo enzyme activity: 114 ± 6%
Fatty Acid Synthetase; 40 mg/kg/day ip
  Percent Control, in vivo enzyme activity: 106 ± 7%
Fatty Acid Synthetase; 60 mg/kg/day ip
  Percent Control, in vivo enzyme activity: 110 ± 8%
LDL
  Cholesterol, concentration as a function of control: 82 ± 8%
  Neutral Lipids, concentration as a function of control: 107 ± 9%
  Phospholipids, concentration as a function of control: 94 ± 10%
  Protein, concentration as a function of control: 108 ± 9%
  Triglycerides, concentration as a function of control: 73 ± 6%
VLDL
  Cholesterol, concentration as a function of control: 40 ± 4%
  Neutral Lipids, concentration as a function of control: 63 ± 6%
  Phospholipids, concentration as a function of control: 95 ± 7%
  Protein, concentration as a function of control: 96 ± 8%
  Triglycerides, concentration as a function of control: 69 ± 5%
